US20250339443A1, “METHOD FOR TREATING OR PREVENTING CALCIUM RELEASE-ACTIVATED CALCIUM CHANNEL OR DISCOIDIN DOMAIN RECEPTOR 2 RELATED DISORDERS OR CONDITIONS” (LumiSTAR Biotechnology, Inc., priority 2023, published 2025)

Key:
DDR2 = target: T1, DDR2 (Homo sapiens, UniProt Q16832); assay: DDR2 activation (anti-phosphotyrosine Western blot) in HEK293T cells overexpressing DDR2, collagen-stimulated; assay type: cell-based; conditions: 10 μM pretreatment 30 minutes, then 50 μg/mL type I collagen 12 hours
T1 construct: expressed in transfected cells; host or cells: HEK293T
T1 sequence (Q16832 22-855): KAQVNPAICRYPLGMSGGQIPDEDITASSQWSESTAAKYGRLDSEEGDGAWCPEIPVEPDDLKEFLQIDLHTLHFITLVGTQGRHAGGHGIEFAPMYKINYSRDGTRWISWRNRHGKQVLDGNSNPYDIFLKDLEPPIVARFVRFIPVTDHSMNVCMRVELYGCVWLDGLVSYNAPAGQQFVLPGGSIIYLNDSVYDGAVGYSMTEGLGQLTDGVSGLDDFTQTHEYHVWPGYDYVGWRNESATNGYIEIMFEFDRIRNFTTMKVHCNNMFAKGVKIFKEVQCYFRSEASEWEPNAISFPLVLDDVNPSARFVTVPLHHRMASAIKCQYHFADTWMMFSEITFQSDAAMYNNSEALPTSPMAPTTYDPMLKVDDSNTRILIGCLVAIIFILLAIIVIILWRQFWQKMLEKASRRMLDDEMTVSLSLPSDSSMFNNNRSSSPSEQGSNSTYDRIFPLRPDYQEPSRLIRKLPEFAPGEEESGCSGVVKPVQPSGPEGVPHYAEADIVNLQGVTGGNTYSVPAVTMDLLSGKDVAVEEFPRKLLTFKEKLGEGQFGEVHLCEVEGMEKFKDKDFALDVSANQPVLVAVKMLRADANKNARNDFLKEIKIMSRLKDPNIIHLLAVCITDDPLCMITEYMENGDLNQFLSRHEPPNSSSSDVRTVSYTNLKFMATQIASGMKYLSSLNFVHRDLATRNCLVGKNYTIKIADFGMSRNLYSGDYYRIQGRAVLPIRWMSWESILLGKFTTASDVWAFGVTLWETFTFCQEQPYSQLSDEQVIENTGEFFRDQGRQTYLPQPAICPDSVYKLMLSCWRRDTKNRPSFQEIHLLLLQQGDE
Description: FIG. 1A, FIG. 1B, FIG. 1C, FIG. 1D, FIG. 1E, FIG. 1F, FIG. 1G, FIG. 1H, FIG. 1I, FIG. 1J, FIG. 1K, FIG. 1L, FIG. 1M, and FIG. 1N show WRG-28 and atovaquone (Av) suppress the activation of DDR2 and calcium release-activated calcium (CRAC) channel. FIG. 1A indicates HEK293T cells were transiently overexpressed with DDR2 and then pretreated with different compounds (10 μM), including WRG-28, Av, donepezil hydrochloride (Dh), terazosin hydrochloride (Th), verapamil and flecainide for 30 minutes. Verapamil and flecainide were used as negative control here. After that, cells were treated with 50 μg/mL type I collagen for 12 hours. Cell lysates were harvested and subjected to Western blot analysis with antibodies against phosphotyrosine antibody (clone 4G10), DDR2, and β-actin. […] CRAC channel activity was evaluated by applying 1 μM thapsigargin (Thap.) in a calcium-free solution to deplete the endoplasmic reticulum calcium store, followed by the reintroduction of 2 mM Ca^2+ in an external solution. […] Further analyses are presented in FIG. 1I and FIG. 1J, where the second peak of each wave and rate of entry were analyzed. […] The Orai1 and Stim1 puncta in HEK293T cells overexpressed with CFP-Orai1/Stim1-mCherry were assessed. […]
Cell lysates were harvested in RIPA buffer (150 mM NaCl, 1 mM EGTA, 50 mM Tris pH 7.4, 10% glycerol, 1% Triton X-100, 1% sodium deoxycholate, 0.1% SDS, and protease inhibitor cocktail) and collected from culture dish with cell scrapers. […] The protein expression levels were assessed by specific primary antibodies, including antibodies against phosphotyrosine (clone 4G10; Millipore), DDR2 (R&D), α-SMA (Sigma), Collagen 1a1 (Boster), E-cadherin (BD Biosciences), SGLT2 (Proteintech), NHE1 (Novus) and β-actin (Clone C4, Millipore), followed by incubating with secondary antibodies conjugated with HRP and detected by ECL kit (Thermo Scientific).
To examine the impact of these compounds on DDR2 activation, HEK293T cells overexpressing DDR2 were pretreated with various compounds. […] The activation of DDR2 was evaluated using an anti-phosphotyrosine antibody. […]

CRAC channel = CRAC channel (Homo sapiens, UniProt Q96D31); assay: CRAC channel activity / SOCE by Fura 2-AM cytosolic Ca2+ imaging in HEK293T cells; assay type: cell-based; set-up: endogenous in cells; host or cells: HEK293T; conditions: 10 μM, 1 μM thapsigargin then 2 mM Ca2+
CRAC channel, sequence (Q96D31 whole entry): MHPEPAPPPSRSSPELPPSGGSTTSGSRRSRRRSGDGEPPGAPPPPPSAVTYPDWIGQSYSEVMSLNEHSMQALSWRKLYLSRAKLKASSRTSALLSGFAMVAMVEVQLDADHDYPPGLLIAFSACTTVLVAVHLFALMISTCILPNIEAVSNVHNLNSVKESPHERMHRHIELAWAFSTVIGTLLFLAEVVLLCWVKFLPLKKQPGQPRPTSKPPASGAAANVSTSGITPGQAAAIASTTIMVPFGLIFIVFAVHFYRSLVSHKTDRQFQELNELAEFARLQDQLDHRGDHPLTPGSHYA
Description: CRAC channel activity was evaluated by applying 1 μM thapsigargin (Thap.) in a calcium-free solution to deplete the endoplasmic reticulum calcium store, followed by the reintroduction of 2 mM Ca^2+ in an external solution. The concentration of cytosolic calcium ions increases as calcium flows through the CRAC channel, leading to the second peak in cytosolic calcium waves. […] Each bar represents the mean value derived from 47 to 103 cells. […] Each bar represents the mean value derived from 83 to 176 cells. […] Further analyses are presented in FIG. 1I and FIG. 1J, where the second peak of each wave and rate of entry were analyzed. Each bar represents the mean value derived from 72 to 108 cells. […] In all the graphs, each bar represents mean±SEM and *, **, and *** denote p-value <0.05, 0.01, and 0.001, respectively.
Cells were then washed and incubated with the same solution in addition to the supplement of Fura 2-AM for another 15 minutes for fully de-esterification. […] 1 μM thapsigargin was added to induce endoplasmic reticulum (ER) calcium store depletion followed by applying 2 mM calcium solution to assess the activation of calcium release-activated calcium (CRAC) channels. Cells were alternately excited at 340 and 380 nm, and images were acquired every 2 seconds. […] All the images were analyzed by using IGOR Pro software. […]

CCNS(=O)(=O)c1ccc(COc2ccc3nc4ccc(=O)cc-4oc3c2)cc1 [WRG-28]
activation of DDR2 (phosphotyrosine) (DDR2): suppress | second peak and rate of SOCE (CRAC channel): significantly reduced
